# Assay results as given in patent US9205068B2 (priority 2008, dated 2015).
# “And” between values parts separate entries of the source, which are not always exact repeats. Equal entries are not always repeated.
# Legend:
# Shiga toxin = type: cell-based
# [1] = in vivo, po; cited from earlier work
# [2] = target: catalytic subunit of pertussis toxin (PTS1) (Bordetella pertussis, UniProt P04977); type: binding, B. pertussis; conditions: PTS1, 100 μM PBA
# [3] = target: cell-binding B subunit of CT (Vibrio cholerae serotype O1, UniProt P01556)
# Chain of cell-binding B subunit of CT (P01556 22-124 limits assumed): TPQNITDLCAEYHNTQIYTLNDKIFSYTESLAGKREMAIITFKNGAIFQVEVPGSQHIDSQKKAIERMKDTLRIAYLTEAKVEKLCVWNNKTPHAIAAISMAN
# [4] = target: catalytic A1 polypeptide of cholera toxin (CTA1) (Vibrio cholerae serotype O1, UniProt P01555); type: binding
# Chain of catalytic A1 polypeptide of cholera toxin (CTA1) (P01555 19-212 limits assumed): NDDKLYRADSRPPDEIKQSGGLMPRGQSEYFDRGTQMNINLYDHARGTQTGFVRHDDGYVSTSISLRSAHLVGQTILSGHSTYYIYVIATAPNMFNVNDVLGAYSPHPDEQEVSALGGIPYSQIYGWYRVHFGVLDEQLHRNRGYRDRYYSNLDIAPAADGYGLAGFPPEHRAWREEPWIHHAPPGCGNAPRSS
# [5] = test system: CTA1 dislocation from the ER to the cytosol of HeLa cells; type: cell-based
# [6] = test system: CT intoxication of CHO cells; type: cell-based
# CT = conditions: in vivo
# [7] = test system: CTA1 secretion from intoxicated HeLa cells; type: cell-based
# 20S proteasome = type: biochemical
# [8] = cited from earlier work
# His6-tagged CTA1 = His6-tagged CTA1 (Vibrio cholerae serotype O1, UniProt P01555); type: binding
# Chain of His6-tagged CTA1 (P01555 19-212 limits assumed): as above
# thermolysin = thermolysin (Bacillus thermoproteolyticus, UniProt P00800); type: biochemical
# Chain of thermolysin (P00800 233-548): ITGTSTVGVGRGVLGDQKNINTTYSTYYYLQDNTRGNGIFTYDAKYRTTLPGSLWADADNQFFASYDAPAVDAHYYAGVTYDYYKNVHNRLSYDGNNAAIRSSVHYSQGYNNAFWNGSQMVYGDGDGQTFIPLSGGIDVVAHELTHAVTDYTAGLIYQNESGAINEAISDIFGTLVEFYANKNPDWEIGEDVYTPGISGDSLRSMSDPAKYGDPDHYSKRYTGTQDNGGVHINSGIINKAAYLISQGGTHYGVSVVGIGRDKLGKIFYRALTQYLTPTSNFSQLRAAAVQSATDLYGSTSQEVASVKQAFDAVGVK
# [9] = test system: forskolin-stimulated adenylate cyclase activity; type: cell-based
# [10] = target: interaction between GRP94 and CTA1 (Homo sapiens, UniProt P14625); type: binding
# Chain of interaction between GRP94 and CTA1 (P14625 22-803 limits assumed): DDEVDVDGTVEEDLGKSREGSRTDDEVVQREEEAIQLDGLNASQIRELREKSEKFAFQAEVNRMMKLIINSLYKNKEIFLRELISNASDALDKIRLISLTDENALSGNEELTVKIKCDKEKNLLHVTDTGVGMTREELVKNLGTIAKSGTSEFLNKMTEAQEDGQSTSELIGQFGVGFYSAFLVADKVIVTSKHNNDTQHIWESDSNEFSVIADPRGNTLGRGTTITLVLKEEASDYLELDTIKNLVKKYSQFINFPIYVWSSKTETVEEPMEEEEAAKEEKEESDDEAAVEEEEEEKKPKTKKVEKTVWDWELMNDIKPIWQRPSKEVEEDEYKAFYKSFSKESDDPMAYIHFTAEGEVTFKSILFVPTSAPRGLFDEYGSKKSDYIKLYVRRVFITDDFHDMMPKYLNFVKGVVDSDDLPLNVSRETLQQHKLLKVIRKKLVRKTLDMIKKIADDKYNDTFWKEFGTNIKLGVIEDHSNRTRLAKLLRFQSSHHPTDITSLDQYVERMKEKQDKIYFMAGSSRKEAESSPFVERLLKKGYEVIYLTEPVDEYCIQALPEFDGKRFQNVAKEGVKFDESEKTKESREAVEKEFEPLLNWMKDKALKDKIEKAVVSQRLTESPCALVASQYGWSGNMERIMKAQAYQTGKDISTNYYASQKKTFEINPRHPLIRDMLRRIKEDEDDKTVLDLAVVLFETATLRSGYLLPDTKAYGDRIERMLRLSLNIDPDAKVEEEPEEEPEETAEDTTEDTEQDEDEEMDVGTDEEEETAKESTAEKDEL
# Chain of catalytic subunit of pertussis toxin (PTS1) (P04977 35-269 limits assumed): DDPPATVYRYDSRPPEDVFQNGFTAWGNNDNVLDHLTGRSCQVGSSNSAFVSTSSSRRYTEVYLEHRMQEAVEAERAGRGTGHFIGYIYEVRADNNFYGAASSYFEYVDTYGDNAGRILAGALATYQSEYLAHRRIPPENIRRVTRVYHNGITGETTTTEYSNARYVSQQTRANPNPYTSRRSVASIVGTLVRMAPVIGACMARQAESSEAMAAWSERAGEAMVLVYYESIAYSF
compound,measurement,setting,value
"O=C([O-])CCCc1ccccc1.[Na+] [PBA, sodium 4-phenylbutyrate]",protection against Shiga toxin,Shiga toxin,do not protect cultured cells against Shiga toxin
same,PBA serum levels,[1],"600-1,700 uM"
same,transition temperature Far UV,[2],33.0 °C
same,transition temperature Near UV,[2],36.0 °C
same,binding to cell-binding B subunit of CT,[3],does not bind
same,Melting temperature (Tm) Fluorescence,[4],37.5 °C and 38.5 °C and 41.0 °C
same,Melting temperature (Tm) Near UV,[4],33.0 °C and 35.0 °C
same,cytosolic pool of CTA1 by SPR,[5],less CTA1 was found in the cytosol
same,CT activity against cultured cells,[6],blocks CT activity against cultured cells in a dose-dependent manner
same,concentration effective against CT intoxication of cultured cells,[6],10 to 100 µM
same,CT activity in the ileal loop test system,CT,blocks CT activity in the ileal loop test system
OCC(O)CO [glycerol],CTA1 secreted into medium versus untreated cells,[7],twice as much CTA1 as the untreated control cells
same,a-casein degradation by the 20S proteasome,20S proteasome,did not inhibit a-casein degradation by the 20S proteasome
same,t1/2 of equilibration across the plasma membrane,[8],5 min
same,CTA1 secondary structure Tm,His6-tagged CTA1,39±0.5 °C
same,CTA1 tertiary structure transition temperature (Tm),His6-tagged CTA1,39.5±1 °C
same,initial secondary structure retained at 37° C.,His6-tagged CTA1,~60%
same,initial tertiary structure retained at 37° C.,His6-tagged CTA1,58%
same,thermolysin-mediated proteolysis of a-casein,thermolysin,did not prevent the thermolysin-mediated proteolysis of a-casein
same,cytosolic pool of CTA1 by SPR,[5],failed to generate a positive cytosolic signal for CTA1
same,"cytosolic pool of CTA1 by SPR, time course",[5],could not be detected
same,reduction in cytosolic CTA1,[5],3 fold and 5 fold
same,total cellular pool of CTA1 present in the cytosolic fraction,[5],7±4%
same,CT concentration for 50% maximal response,[6],35 ng of CT/ml
same,CT intoxication (cAMP response),[6],resistant to CT
same,cAMP relative to cells treated with forskolin alone,[9],105%
N-ethylcarboxamidoadenosine [NECA],effect on GRP94 binding to CTA1,[10],blocked by both GA and NECA
same,cytosolic CTA1 by Western blot,[5],unaffected by NECA treatment
same,cytosolic pool of CTA1 by SPR,[5],response comparable to the response from cells intoxicated in the absence of drug treatment
same,CT intoxication (cAMP response),[6],same response to CT as the untreated cells
brefeldin A [BfA],CTA1 in the medium by SPR,[7],could not detect an appreciable amount of CTA1 in the medium
same,cytosolic pool of CTA1 by SPR,[5],No signal
